ChEMBL document CHEMBL1201862, “PubChem BioAssay data set” (2004)
Activity calls are given as the source filed them.

Legend:
[1] = target: T1, Ubiquitin-conjugating enzyme E2 N (Homo sapiens, UniProt P61088); assay type: functional;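 also: Dose-response confirmation in a TR-FRET assay detecting UBC13-driven polyubiquitin chain formation, inhibition measured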
T1 sequence (P61088 whole entry): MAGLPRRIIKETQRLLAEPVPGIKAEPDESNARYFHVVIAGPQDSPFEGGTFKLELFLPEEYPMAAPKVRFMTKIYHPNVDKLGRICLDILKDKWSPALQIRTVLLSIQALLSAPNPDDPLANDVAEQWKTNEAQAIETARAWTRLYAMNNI

[2] = target: T2, Carboxy-terminal domain RNA polymerase II polypeptide A small phosphatase 1 (Homo sapiens, UniProt Q9GZU7); assay: CTDSP1 inhibitors, concentration-response, biochemical, absorbance readout, ultra-high-throughput screen actives (AID 540297); assay type: functional
T2 sequence (Q9GZU7 whole entry): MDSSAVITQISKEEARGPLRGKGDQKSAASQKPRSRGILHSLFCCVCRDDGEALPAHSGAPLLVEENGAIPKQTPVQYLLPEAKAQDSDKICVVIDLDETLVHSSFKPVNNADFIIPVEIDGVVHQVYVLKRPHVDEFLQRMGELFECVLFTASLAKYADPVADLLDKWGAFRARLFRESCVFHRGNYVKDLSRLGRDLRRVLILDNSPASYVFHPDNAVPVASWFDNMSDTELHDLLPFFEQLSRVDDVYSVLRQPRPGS

[3] = Luminescence Cell-Based Dose Confirmation HTS to Identify Activators of 5'UTR Stem-Loop Driven Alpha-Synuclein mRNA Translation in H4 Neuroglioblastoma Cells. [Related pubchem assays: 1829 (Project Summary), 1814 (Primary HTS)]; assay type: functional
[4] = Luminescence Cell-Based Dose Response HTS to Identify Activators of Luciferase Translation or Activity in H4 […] Cells. [Related pubchem assays: 1829 (Project Summary), 1814 (Primary HTS)]; assay type: functional
H4 = assay: Luminescence Cell-Based Dose Response HTS to Identify Activators of 5'UTR Stem-Loop Driven Prion Protein mRNA Translation in H4 Neuroglioblastoma Cells. [Related pubchem assays: 1829 (Project Summary), 1814 (Primary HTS)]; assay type: functional; conditions: Homo sapiens
[5] = reduction of Shn3 3'UTR-driven luciferase in osteoblasts – cell-based, Clone20 osteoblasts, firefly luciferase, cherry-picked, dose response (AID 624132); assay type: functional;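 also: firefly luciferase luminescence from reporter carrying the Shn3 3'UTR in osteoblasts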
[6] = non-specific 3'UTR reporter inhibition in Clone20-Shn3RL – cell-based, Renilla luciferase, cherry-picked, counter-screen for Shn3 inhibitor project, dose response (AID 624133); assay type: functional
[7] = intracellular Trypanosoma cruzi inhibitors in host cells – cell-based, plate reader, cherry-pick samples, set 3, dose response (AID 651818); assay type: functional;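 also: compounds incubated with infected cells for about four days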
[8] = P. falciparum Dd2 growth inhibitors, dose response, SYBR Green, cherry-picked samples (AID 1159567); assay type: functional, cell-based
Large T antigen = Large T antigen (Simian virus 40, UniProt P03070); assay type: functional, Betapolyomavirus macacae;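 also: Confirmatory-stage PubChem screen for compounds that inhibit SV40 T antigen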
Protein skinhead-1 = target: T3, Protein skinhead-1 (Caenorhabditis elegans, UniProt P34707); assay type: functional
T3 sequence (P34707 whole entry): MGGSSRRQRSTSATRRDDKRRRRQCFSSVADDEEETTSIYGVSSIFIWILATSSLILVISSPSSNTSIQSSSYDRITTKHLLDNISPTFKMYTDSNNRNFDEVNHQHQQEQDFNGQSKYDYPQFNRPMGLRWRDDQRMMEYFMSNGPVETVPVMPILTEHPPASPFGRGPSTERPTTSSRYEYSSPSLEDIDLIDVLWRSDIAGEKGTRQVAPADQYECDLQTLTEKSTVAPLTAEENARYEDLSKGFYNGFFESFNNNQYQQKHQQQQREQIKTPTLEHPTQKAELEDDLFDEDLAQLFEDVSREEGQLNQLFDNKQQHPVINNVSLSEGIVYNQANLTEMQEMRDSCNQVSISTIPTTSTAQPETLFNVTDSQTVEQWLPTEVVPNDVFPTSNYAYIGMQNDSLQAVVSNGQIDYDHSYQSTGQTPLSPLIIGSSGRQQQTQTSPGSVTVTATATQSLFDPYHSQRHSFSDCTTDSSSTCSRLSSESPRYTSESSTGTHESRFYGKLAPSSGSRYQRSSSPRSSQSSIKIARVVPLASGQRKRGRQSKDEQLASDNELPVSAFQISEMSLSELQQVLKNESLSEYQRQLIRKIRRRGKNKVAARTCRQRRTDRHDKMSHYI

cells = assay type: functional
[9] = Trypanosoma cruzi growth suppression in host cells – NIH3T3 host cells, beta-gal luminescence, confirmation (AID 2044); assay type: functional, cell-based;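 also: intracellular parasites grown in NIH/3T3 mouse fibroblasts as host cells; luminescent beta-galactosidase reporter signal from transgenic T. cruzi replicating inside host cells; inhibitors lower the luminescence signal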
[10] = NIH3T3 cell viability loss – ATP luminescence, mouse fibroblasts, counter-screen, dose response (AID 2010); assay type: functional, cell-based;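 also: cells exposed to compound for about 90 hours before reading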
[11] = target: T4, Zinc finger protein mex-5 (Caenorhabditis elegans, UniProt Q9XUB2); assay: potency of MEX-5 RNA-binding blockers – biochemical, C. elegans, fluorescence polarization, dose response (AID 1960)
T4 sequence (Q9XUB2 whole entry): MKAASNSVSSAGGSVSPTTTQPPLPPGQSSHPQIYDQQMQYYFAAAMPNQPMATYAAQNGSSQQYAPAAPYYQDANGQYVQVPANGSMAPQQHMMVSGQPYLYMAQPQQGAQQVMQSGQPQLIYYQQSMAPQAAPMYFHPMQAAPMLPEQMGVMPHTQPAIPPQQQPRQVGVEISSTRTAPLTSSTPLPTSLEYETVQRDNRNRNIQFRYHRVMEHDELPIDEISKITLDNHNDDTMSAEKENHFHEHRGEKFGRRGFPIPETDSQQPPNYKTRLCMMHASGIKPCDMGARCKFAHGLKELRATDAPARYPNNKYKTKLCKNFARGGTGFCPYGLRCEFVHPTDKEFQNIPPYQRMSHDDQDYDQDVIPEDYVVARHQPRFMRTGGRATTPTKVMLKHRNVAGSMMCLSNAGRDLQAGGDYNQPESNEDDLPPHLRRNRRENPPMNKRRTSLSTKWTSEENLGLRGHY

[12] = target: T5, Corticotropin-releasing factor receptor 2/Corticotropin-releasing factor-binding protein (Homo sapiens, UniProt P24387+Q13324); assay: activators of CRF receptor 2 with binding protein – uHTS hits, confirmation (AID 602473); assay type: functional; conditions: read-out: EC50_Mean
T5 sequence (Q13324 whole entry): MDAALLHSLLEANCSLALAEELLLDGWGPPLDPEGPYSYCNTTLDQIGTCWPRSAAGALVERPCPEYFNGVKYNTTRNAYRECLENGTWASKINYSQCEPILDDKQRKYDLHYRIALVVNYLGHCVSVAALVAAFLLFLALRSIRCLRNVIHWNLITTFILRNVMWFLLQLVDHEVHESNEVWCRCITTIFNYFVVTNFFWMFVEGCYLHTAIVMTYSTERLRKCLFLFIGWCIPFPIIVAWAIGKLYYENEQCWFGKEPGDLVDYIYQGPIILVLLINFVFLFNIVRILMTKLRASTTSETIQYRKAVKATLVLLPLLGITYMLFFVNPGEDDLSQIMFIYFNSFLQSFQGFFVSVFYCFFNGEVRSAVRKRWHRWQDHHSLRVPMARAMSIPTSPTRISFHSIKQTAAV
T5 sequence (P24387 whole entry): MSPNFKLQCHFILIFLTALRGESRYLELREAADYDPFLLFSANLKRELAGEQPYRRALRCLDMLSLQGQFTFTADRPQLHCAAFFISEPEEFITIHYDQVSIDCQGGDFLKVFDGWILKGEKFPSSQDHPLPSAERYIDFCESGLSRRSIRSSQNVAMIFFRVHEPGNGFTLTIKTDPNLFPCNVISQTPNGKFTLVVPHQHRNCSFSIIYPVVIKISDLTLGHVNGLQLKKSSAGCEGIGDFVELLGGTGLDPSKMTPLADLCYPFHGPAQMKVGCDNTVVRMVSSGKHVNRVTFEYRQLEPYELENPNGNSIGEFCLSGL

[13] = target: T6, Rac GTPase-activating protein 1 (Homo sapiens, UniProt Q9H0H5); assay: blockers of MgcRacGAP-driven Rac1 GTP hydrolysis – biochemical, ADP Hunter fluorescence, primary and confirmatory, confirmation (AID 624330); assay type: functional
T6 sequence (Q9H0H5 whole entry): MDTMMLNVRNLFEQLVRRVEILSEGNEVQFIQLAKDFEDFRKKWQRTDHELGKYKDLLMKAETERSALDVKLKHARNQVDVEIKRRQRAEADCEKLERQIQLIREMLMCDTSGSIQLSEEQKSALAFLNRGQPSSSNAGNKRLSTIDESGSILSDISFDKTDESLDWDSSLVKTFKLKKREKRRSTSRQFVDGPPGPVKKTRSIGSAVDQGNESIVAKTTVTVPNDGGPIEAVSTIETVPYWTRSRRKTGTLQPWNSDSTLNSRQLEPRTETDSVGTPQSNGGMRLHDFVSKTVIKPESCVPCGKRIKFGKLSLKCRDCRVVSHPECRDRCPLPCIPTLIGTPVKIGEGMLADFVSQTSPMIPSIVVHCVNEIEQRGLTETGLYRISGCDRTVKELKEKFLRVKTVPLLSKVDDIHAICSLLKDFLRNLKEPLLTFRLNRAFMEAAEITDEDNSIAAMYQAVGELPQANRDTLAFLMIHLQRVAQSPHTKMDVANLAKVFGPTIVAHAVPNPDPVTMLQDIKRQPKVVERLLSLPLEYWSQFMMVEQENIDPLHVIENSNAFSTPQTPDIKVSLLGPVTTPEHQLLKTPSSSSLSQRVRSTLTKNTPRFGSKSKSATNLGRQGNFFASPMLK

Large T antigen, sequence (P03070 whole entry): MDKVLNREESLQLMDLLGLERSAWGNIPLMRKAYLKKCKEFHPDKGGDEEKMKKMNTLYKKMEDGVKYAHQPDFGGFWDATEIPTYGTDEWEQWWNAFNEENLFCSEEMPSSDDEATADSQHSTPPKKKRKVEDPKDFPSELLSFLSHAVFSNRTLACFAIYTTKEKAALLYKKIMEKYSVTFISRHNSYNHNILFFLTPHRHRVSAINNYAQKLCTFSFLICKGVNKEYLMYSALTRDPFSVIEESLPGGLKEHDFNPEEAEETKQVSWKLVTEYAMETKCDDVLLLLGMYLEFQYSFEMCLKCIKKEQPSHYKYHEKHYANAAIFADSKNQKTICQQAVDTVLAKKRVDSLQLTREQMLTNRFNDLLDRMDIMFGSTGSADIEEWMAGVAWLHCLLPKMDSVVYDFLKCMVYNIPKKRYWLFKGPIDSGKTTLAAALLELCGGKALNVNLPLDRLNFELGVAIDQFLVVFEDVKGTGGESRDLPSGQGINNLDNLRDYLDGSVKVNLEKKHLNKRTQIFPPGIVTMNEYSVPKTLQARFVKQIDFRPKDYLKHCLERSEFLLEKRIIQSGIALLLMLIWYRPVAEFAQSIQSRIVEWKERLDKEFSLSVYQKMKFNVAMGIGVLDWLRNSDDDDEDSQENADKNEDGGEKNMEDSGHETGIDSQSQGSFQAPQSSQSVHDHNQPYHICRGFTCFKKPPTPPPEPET

## COc1ccccc1C(=O)Nc1c2c(nn1-c1cccc(C)c1C)CS(=O)(=O)C2
[1]
  IC50: > 20 µM (inactive)
[2]
  IC50: 10.1 µM (active)

## Cc1ccc(NC(=O)c2cnn(-c3ccccc3)c2C)c(C)c1
[3]
  EC50: 0.463 µM (active)
[4]
  EC50: 37.9 µM (active)
H4
  EC50: > 120 µM (not active)

## COc1ccc(-c2nc3c(n2O)CCc2c-3no[n+]2[O-])cc1
[3]
  EC50: > 120 µM (not active)
[4]
  EC50: 22.2 µM (active)
H4
  EC50: 15 µM (active)

## COc1ccc(OC)c(C(c2nnnn2Cc2ccccc2)N2CCN(C3CCCCC3)CC2)c1 (configuration not stated)
[5]
  AC50: > 70 µM (inactive)
[6]
  AC50: 30.4 µM (active)

## C[C@H]1CN([C@@H](C)CO)C(=O)c2cc(NC(=O)Nc3cccc4ccccc34)ccc2O[C@@H]1CN(C)Cc1ccc(Oc2ccccc2)cc1
[7]
  AC50: 4.66 µM (active)
[8]
  AC50: 7.39 µM (active)

## O=c1nc2n(c(O)c1C(c1c(O)nc3n(c1=O)CCS3)c1cccc3ccccc13)CCS2 (configuration not stated)
Large T antigen
  IC50: > 100 µM (active)

## C[C@H]1CN([C@@H](C)CO)C(=O)c2cccc(NC(=O)CCCCCC(=O)Nc3ccccc3N)c2O[C@@H]1CN(C)Cc1ccc(-c2ccccc2)cc1
[7]
  AC50: 1.71 µM (active)

## Cc1ccccc1NC(=O)c1cc(N)ccc1N1CCCCC1
Large T antigen
  IC50: 18.9 µM (active)

## CCCNC(=O)c1ccc2snnc2c1
Protein skinhead-1
  IC50: > 100 µM (inactive)

## CCOCC(=O)Nc1ccc(C)c(Cl)c1
cells
  IC50: 37.1 µM (active)
Protein skinhead-1
  IC50: > 100 µM (inactive)

## Cc1ccc(N2C(=O)NC(=O)/C(=C/Nc3ccc(S(=O)(=O)N(C)C)cc3)C2=O)cc1
Protein skinhead-1
  IC50: > 100 µM (inactive)

## c1ccc(-c2ccc(OCCCNC3CCCC3)cc2)cc1
[9]
  EC50: 1.03 µM (active)
[10]
  EC50: > 60 µM (not active)
Protein skinhead-1
  IC50: 20.8 µM (active)

## C[C@H]1CN([C@@H](C)CO)C(=O)c2cc(NS(=O)(=O)c3ccc(Cl)cc3)ccc2O[C@H]1CN(C)Cc1ccc(C(=O)Nc2ccccc2N)cc1
[7]
  AC50: 1.96 µM (active)

## Fc1ccc(-c2nc3ccc(Br)cn3c2Cc2ccccc2C(F)(F)F)cc1
Protein skinhead-1
  IC50: > 100 µM (inactive)

## CCNC(=O)C1(C)CCCN1C(=O)c1ccc(C#N)cc1 (configuration not stated)
Protein skinhead-1
  IC50: > 100 µM (inactive)

## COc1ccc(CN(C)C[C@@H]2Oc3c(NC(=O)Nc4ccc(C(F)(F)F)cc4)cccc3C(=O)N([C@H](C)CO)C[C@@H]2C)cc1
[7]
  AC50: 1.42 µM (active)

## O=C1NC(=O)N(c2ccc(F)cc2)C(=O)/C1=C/c1c[nH]c2ccccc12
[11]
  EC50: > 300 µM (inconclusive)
[12]
  EC50: 10.3 µM (active)

## COc1cccc(NCc2cc(=O)oc3cc(-c4ccccc4)c(O)cc23)c1
[3]
  EC50: 21.8 µM (active)
[4]
  EC50: 15.2 µM (active)
H4
  EC50: 20 µM (active)

## O=C(CCCCCN1C(=O)c2cccc3cccc(c23)C1=O)NCc1ccco1
[1]
  IC50: > 20 µM (inactive)

## O=C(CCn1c(=S)[nH]c2ccccc2c1=O)NCCCN1CCCC1=O
Protein skinhead-1
  IC50: > 100 µM (inactive)

## Cc1cc(C(=O)Nc2cccc3c2O[C@@H](CN(C)Cc2ccc(-c4ccccc4)cc2)[C@@H](C)CN([C@H](C)CO)C3=O)n(C)n1
[7]
  AC50: 5.16 µM (active)

## Cc1ccc(C(=O)Nc2nc(-c3ccc(F)cc3)cs2)o1
Protein skinhead-1
  IC50: > 100 µM (inactive)

## C[C@H]1CN([C@@H](C)CO)C(=O)Cc2cc(NC(=O)Nc3ccc(C(F)(F)F)cc3)ccc2O[C@H]1CN(C)Cc1ccc(C(=O)Nc2ccccc2N)cc1
[7]
  AC50: 2.13 µM (active)

## C=CCn1c(SCC(=O)N(CC)C2CCS(=O)(=O)C2)nnc1-c1ccccc1 (configuration not stated)
[1]
  IC50: > 20 µM (inactive)

## N#CC1=C2SCN(c3ccccc3)CN2C(=O)CC1c1ccccc1Cl (configuration not stated)
Large T antigen
  IC50: 36.3 µM (active)

## O=c1cc(N2CCN(c3ccc(F)cc3)CC2)[nH]c(=O)n1C1CCCCC1
[3]
  EC50: > 120 µM (not active)
[4]
  EC50: 17.3 µM (inconclusive)
H4
  EC50: 26.6 µM (active)

## NC1=NC[C@H](c2ccccc2)N1CCc1cc(C(F)(F)F)cc(C(F)(F)F)c1
[1]
  IC50: > 20 µM (inactive)

## COc1cc(/C=N\NC(=O)C2CC3C=CC2C3)ccc1O (configuration not stated)
Large T antigen
  IC50: 13.3 µM (active)
[13]
  IC50: 23.4 µM (active)

## C[C@H](CO)N1C[C@H](C)[C@@H](CN(C)Cc2ccc(C(=O)Nc3ccccc3N)cc2)Oc2c(NS(=O)(=O)c3ccc(Cl)cc3)cccc2C1=O
[7]
  AC50: 1.41 µM (active)

## COc1ccccc1NC(=O)Oc1ccc(NC(=O)c2ccco2)cc1
Large T antigen
  IC50: 22.9 µM (active)

## Cc1cc(OCc2cccc(Cl)c2)c(C)cc1CN1CCOCC1
Protein skinhead-1
  IC50: 6.33 µM (active)
